Assay results published in US8815857B2 (Boehringer Ingelheim International GmbH, priority 2011, dated 2014).
≈ marks a conversion by molar mass, not a printed value.

Key:
[1] = target: T1, Recombinant human soluble guanylate cyclase (sGC), alpha 1 / beta 1 subunits, heme-free (Homo sapiens, UniProt Q02108+Q02153); assay: Molecular assay: cGMP formation by heme-free recombinant sGC (CisBio cGMP detection kit); format: biochemical; details: 300 pM heme-free sGC, 37° C., 60 min, cGMP readout; read-out: EC50 nM, Activity of Compounds in Molecular Assay
T1 construct: histidine tag (C); made in house; host or cells: Sf9 insect cells (baculovirus coinfection)
T1 sequence (Q02108 1-690 partner): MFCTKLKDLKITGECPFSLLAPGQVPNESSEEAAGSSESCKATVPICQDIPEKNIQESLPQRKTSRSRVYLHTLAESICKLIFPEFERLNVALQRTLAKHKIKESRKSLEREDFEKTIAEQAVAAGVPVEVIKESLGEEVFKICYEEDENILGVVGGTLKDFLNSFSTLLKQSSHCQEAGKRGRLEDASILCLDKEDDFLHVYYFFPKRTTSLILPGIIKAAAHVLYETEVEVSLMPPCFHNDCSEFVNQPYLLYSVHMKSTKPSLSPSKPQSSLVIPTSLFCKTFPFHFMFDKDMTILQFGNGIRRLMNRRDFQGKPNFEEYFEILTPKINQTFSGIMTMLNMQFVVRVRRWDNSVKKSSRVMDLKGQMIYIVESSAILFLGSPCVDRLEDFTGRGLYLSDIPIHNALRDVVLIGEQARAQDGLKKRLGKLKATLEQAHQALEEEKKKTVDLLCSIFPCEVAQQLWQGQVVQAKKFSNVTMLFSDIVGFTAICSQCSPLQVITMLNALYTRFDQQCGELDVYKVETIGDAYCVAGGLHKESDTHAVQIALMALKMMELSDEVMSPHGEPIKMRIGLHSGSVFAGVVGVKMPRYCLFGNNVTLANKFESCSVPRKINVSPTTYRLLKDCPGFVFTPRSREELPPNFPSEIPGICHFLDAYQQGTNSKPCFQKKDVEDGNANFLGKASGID
T1 sequence (Q02153 1-619): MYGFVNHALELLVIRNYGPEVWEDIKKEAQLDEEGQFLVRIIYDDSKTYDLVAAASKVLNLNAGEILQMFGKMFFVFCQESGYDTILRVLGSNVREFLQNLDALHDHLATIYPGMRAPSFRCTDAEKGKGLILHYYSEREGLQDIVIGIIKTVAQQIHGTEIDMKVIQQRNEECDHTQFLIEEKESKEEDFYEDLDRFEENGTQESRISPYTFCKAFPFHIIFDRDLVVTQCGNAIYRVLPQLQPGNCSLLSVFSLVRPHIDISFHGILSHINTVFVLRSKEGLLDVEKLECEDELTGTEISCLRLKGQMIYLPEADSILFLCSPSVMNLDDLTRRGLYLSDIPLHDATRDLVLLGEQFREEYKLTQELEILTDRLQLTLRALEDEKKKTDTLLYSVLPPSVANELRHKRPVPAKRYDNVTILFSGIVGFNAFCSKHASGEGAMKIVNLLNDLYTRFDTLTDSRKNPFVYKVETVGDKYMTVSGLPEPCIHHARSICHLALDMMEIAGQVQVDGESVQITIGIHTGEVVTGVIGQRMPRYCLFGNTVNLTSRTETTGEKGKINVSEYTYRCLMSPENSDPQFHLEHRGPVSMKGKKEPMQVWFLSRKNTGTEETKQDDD
Outline: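 cGMP generated over 60 min at 37° C (pH 6.8 MOPS buffer, 50 nM GTP, 1.25 mM IBMX, 1% DMSO) by 300 pM heme-free sGC, expressed in Sf9 and heme-stripped with 0.5% Tween 20. HTRF ratios converted to nM cGMP; EC50 fitted from log concentration.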

physchem = details: kinetic from dmso stock
[2] = Assessment of solubility: HT solubility in pION buffer, UV spectrophotometry; details: pION system solution buffer, kinetic from dmso stock, 16-19 h incubation, 1.0% DMSO
[3] = target: T2, human soluble guanylate cyclase alpha 1 and beta 1 subunits (sGC) stably expressed in Chinese hamster ovary cells (Homo sapiens, UniProt Q02108+Q02153); assay: sGC cellular activator assay: cGMP in CHO cells expressing human sGC, preincubated with ODQ; format: cell-based; details: 40 microM ODQ preincubation, 30 min at room temperature, presence or absence of 50% human serum not given, read-out: EC50 nM, Activity of Compounds in Cellular Assay
T2 construct: expressed in transfected cells; host or cells: Chinese hamster ovary cells, stably transfected
T2 sequence (Q02108 1-690 partner): T1 sequence (Q02108 1-690 partner)
T2 sequence (Q02153 1-619): T1 sequence (Q02153 1-619)
Outline: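 EC50 values derive from HTRF cGMP measurement after test compounds act for thirty minutes at room temperature, with or without 50% human serum. Before dosing, the sGC-transfected CHO cells spend one hour with the inhibitor ODQ (40 microM) in IBMX- and 0.1% BSA-containing buffer.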

[4] = pH 4.5, pH 4.5, aqueous buffer, Solubility (pH 4.5), pH 4.5 buffer
[5] = pH 7.4, pH 7.4, aqueous buffer, Solubility (pH 7.4), pH 7.4 buffer

| SMILES | EC50 [1] [nM] | solubility (physchem; pH 4.5, aqueous buffer, Solubility (pH 4.5)) [µg/mL] | solubility (physchem; pH 7.4, aqueous buffer, Solubility (pH 7.4)) [µg/mL] | solubility [2, 4] [µg/mL] | solubility [2, 5] [µg/mL] | EC50 [3] [nM] |
| --- | --- | --- | --- | --- | --- | --- |
| Cc1ccc(OCc2ccc(CN3CCN(C(=O)C4CC4)CC3)cc2C)c(-c2csc(N3CCC(C(=O)O)CC3)n2)c1 [Compound 198] | 20 | 37 (≈ 62.8 µM) | > 58 | – | – | – |
| Cc1ccc(OCc2ccc(CN3CCN(C(=O)C4CC4)CC3)cc2C#N)c(-c2csc(N3CCC(C(=O)O)CC3)n2)c1 [Compound 352] | 14 | – | – | 22 (≈ 36.7 µM) | > 59 | 76 |
| Cc1ccc(OCc2ccc(CN3CCC(F)CC3)cc2C)c(-c2csc(N3CCC(C(=O)O)CC3)n2)c1 [Compound 353] | 470 | – | – | > 53 | 38 (≈ 70.7 µM) | 140 |
